We go through 11 compounds from patent US20250367209A1 (SOUTHERN RESEARCH INSTITUTE, priority 2022, published 2025).

pIC50: −log10 of the molar value. Where two headings read alike, the source gives them in different places.

Data set [1] is described as follows: Metabolic stability in mouse liver microsomes. The settings on record: for half-life: mouse, liver microsomes, Table 3, read-out: ADME t1/2 (min): MLMt1/2. The data set is classed as in vitro ADME. (Microsomes from liver hold many membrane-bound enzymes, among them those of drug oxidation.)
The nature of another data set: Solubility. The settings on record: for ADME Sol (μM): Table 3; for Solubility: Table 2. The data set is classed as physicochemical.
The target in a further data set is Tau-FynSH3 interaction (Homo sapiens (Human), UniProt P10636). In words: Tau-FynSH3 AlphaScreen. The data set is classed as binding. The source says:
Human Fyn-SH3 domain with GST-tag at the N-terminus and a Strep-tag II ([…]) at the C-terminus (GST-Fyn-SH3-Strep) was cloned into pPR-IBA1 vector (IBA Lifesciences) (Cochran, et al. (2014) J. Biomol. Screen. 19, 1338-1349). Codon-optimized human 4R2N Tau for E. coli expression with a Strep-tag II at the C-terminus (His-Tau-Strep) was cloned into pET-28a(+) vector (Novagen). The constructs were transformed into E. coli BL-21(DE3) competent cells (Novagen). For GST-Fyn-SH3-Strep purification, a single colony was inoculated in Luria-Bertani (LB) broth at 37° C. overnight. 10 mL cell culture was added into 500 mL LB medium and cultured at 37° C. 0.5 mM Isopropyl β-D-1-thiogalactopyranoside (IPTG) was added into the culture when OD600 reached 0.7. Cells were further cultured at 25° C. for 4 hours and harvested. Cell pellet was resuspended in lysis buffer (20 mM Tris pH 7.9, 300 mM NaCl, 1 mM TCEP) with 1 tablet of EDTA-free protease inhibitors (ThermoFisher) and 1 mg/ml lysozyme. Cells were disrupted by sonication and debris was removed by centrifugation at 9500 rpm for 1 hour. Supernatant was loaded onto a glutathione-sepharose column (Cytiva). The column was washed in lysis buffer and protein eluted in lysis buffer containing 25 mM reduced glutathione. For His-Tau-Strep protein purification, cells were inoculated in LB broth medium and cultured at 37° C. overnight. A 10 mL overnight culture was added to 500 mL of auto-induction medium (Studier, F. W. (2005) Protein Expr Purif 41, 207-34) and cells were cultured at 37° C. for about 5 hours. The temperature was lowered to 18° C., and cells were cultured overnight. Cells were harvested and resuspended in lysis buffer with 20 mM imidazole, protease inhibitors, and lysozyme. Cells were disrupted by sonication and cell pellets were spun down at 9500 rpm for 1 hour. Supernatant was loaded onto Ni-NTA column (Cytiva) and the column was washed in lysis buffer with 20 mM imidazole. His-Tau-Strep protein was eluted in lysis buffer containing 400 mM imidazole. Both eluted GST-Fyn-SH3-Strep and His-Tau-Strep protein solutions were passed through G-25 desalting column (Cytiva) with lysis buffer and loaded onto high capacity Strep-Tactin column (IBA Lifesciences). The columns were washed in Buffer W (IBA Life sciences) and proteins were eluted in Buffer E (IBA life sciences). The eluted proteins were passed through G-25 desalting column again. Both GST-Fyn-Strep and His-Tau-Strep proteins were concentrated and diluted 1:1 in ethylene glycol as a cryoprotectant for storage at −80° C.
AlphaScreen was conducted with 10 µg/mL of glutathione donor beads (PerkinElmer, Waltham, MA) and nickel chelate acceptor beads (PerkinElmer) in 10 mM Bis-Tris (pH 7.0), 1 mM TCEP, 0.02% casein, and 0.1% Tween-20. Compounds were plated first followed by addition of one the proteins at 600 nM and incubation for 30 min. The second protein was added and incubated for 30 mn, then the beads were added simultaneously and the final mixture was incubated for 2 hours. Experiments were conducted in 384-well plates (6007290; PerkinElmer) and results were read on a PHERAstar plate reader (BMG Labtech, Cary, NC).
˜50,000 compounds from the Enamine and Southern Research libraries were screened to identify Tau-FynSH3 interaction inhibitors using an AlphaScreen assay (Cochran, et al. (2014) J. Biomol. Screen. 19, 1338-1349). Compounds that were >3 standard deviations above mean inhibition were selected, yielding 1,852 hits (FIG. 1A). […]. These 39 compounds were tested in a live-cell BRET assay to measure Tau-Fyn interaction in cells. […]. Screen. 19, 1338-1349).

Data set [2] is described as follows: Partition coefficient (LogD). The data set is classed as physicochemical. The conditions noted are these: Table 3; read-out: ADME LogD. The source says: (§1) A computational analysis of the top five hits was then completed to assess the physical attributes of the compounds emerging from the HTS. The target profile for drug-like properties included evaluation of molecular weight (MW), total polar surface area (PSA, the surface sum of all polar atoms on the molecule), solubility, metabolic stability, and partition coefficient (LogD). In general, MW<[…] and PSA <70 Å^2 were targeted, which generally allows for blood-brain barrier (BBB) permeability. Compounds with PSA >100 A^2 are generally poor at permeating cell membranes. Solubility was targeted at >10 μM at pH 7.4 and 40-60% of compound remaining after 60 minutes of incubation in mouse or human liver microsomes (an indicator of compound stability after first-pass metabolism). LogD is the log of the ratio of concentrations of a compound in two immiscible solvents at equilibrium. Values ranging from 2-4 were targeted, typical for CNS drugs. Based on these criteria, compound no. 55 was selected as the top hit for optimization. Compound no.

Data set [3] in a line: Metabolic stability in human liver microsomes. The conditions noted are these: Table 3, read-out: ADME t1/2 (min): HLMt1/2. The data set is classed as in vitro ADME.
Description: as §1

For the next data set, the system named is primary rat neurons. In words: Modified MTT assay of Aβ toxicity in primary neurons. The conditions noted are these: compound 0.3, 3 or 15 μM, 90-minute pretreatment, 2.5 μM Aβ, 24 hours. The data set is classed as cell-based. The source says:
Primary neuron cultures: All animal procedures were approved by the Institutional Animal Care and Use Committee at the University of Alabama at Birmingham (UAB). As before (Rush, et al. (2020) Neurobiol Dis 134, 104668; Voskobiynyk, et al. (2020) eLife 9, e57354), primary rat neurons were isolated from timed-pregnant Sprague-Dawley rats. Briefly, dams were euthanized with isoflurane anesthesia asphyxiation, and hippocampal tissue was isolated from E19 embryos in Hibernate E, then digested in papain for 10 minutes at 37° C. Neurons were triturated into a single cell suspension in Neurobasal supplemented with B-27, L-Glutamine, and 10% FBS, then plated in 96-well plates coated with PDL and laminin at 30,000 neurons per well in 200 uL medium or in 24-well coated plates with or without coverslips at 50,000 per well. Cultures were maintained at 37° C. with 5% CO2. Twenty-four hours after plating (DIV1), two 50% media changes with Neurobasal plus B-27 and L-Glutamine without FBS, and 5 μM cytosine β-D-arabinofuranoside was added to prevent glial proliferation. 50% media changes were performed at DIV7 and DIV14 with serum-free supplemented Neurobasal and experiments were started at DIV19.
Aβ oligomer preparation: As before (Rush, et al. (2020) Neurobiol Dis 134, 104668), lyophilized recombinant Aβ42 was dissolved in HFIP, dried overnight, then stored at −20° C. until oligomerization. To oligomerize, Aβ was dissolved in DMSO to 1 mM, then diluted to 100 µM in PBS, then sonicated and left on ice for 24 hours. Immediately prior to use, Aβ was centrifuged at 4° C. for 10 minutes at 14,000×g. Vehicle was prepared as well in identical fashion except lacking the Aβ peptide.
Aβ toxicity assays: The modified MTT and MAP2 assays were adapted from a recent study (Rush, et al. (2020) Neurobiol Dis 134, 104668). Briefly, at DIV19, media on the neurons was reduced to […], then compound was added to final concentration of 0 μM, 0.3 μM, 3 μM, or 15 μM with even amounts of DMSO. After 90-minute pretreatment with compound, 2.5 μM Aβ was added.
The modified MTT assay was performed 24 hours after Aβ application. 100 μM MTT was applied to neurons and incubated at 37° C. for one hour. Media was removed, then replaced with 15 μL 1.6% Tween20 in PBS and incubated on a shaker at 100 rpm for 5 minutes. The Tween was then removed and transferred to a 384-well clear-bottom plate and replaced with 15 μL isopropanol. Plates were again agitated for 5 minutes at RT, then isopropanol was transferred to the 384-well plate. Absorbance was then read at 590 nm on a plate reader, with 660 nm used as a reference. The ratio of Tween soluble MTT to isopropanol soluble (Tween-insoluble) MTT was calculated for each sample, then normalized to the vehicle group average.

The target in a further data set is Tau-Fyn interaction (Homo sapiens (Human), UniProt P10636). In words: Tau-Fyn PLA screening in HEK-293 cells. The settings on record: compound 15 μM, 24 hours. The data set is classed as cell-based. As for the experimental part:
Tau-Fyn PLA screening in HEK-293 cells: For Tau-Fyn PLA in HEK-293 cells, we used the same plasmids as before (Rush, et al. (2020) Neurobiol Dis 134, 104668): human 4R2N Tau with an N-terminal mKate2 tag in a pcDNA3.1 vector and human Fyn with an N-terminal Myc tag in a pCMV-Sport6 vector grown in Stellar E. coli. HEK-293 cells were plated on coverslips coated with PDL and laminin in a 24-well plate in DMEM supplemented with 10% FBS and 1% PenStrep. Cells were transfected with 125 ng of Tau-mKate2 and Fyn plasmids with 1.5 μL Fugene in plain DMEM. After 24 hours, compound was applied at 15 μM. Twenty-four hours after application, cells were fixed. PLA protocol was the same as above except for different primary antibodies (Tau5 1:500, Fyn3 1:250). After image acquisition, PLA density was calculated as PLA puncta (as above) divided by cell area to account for differences in confluency. Cell area was defined with ImageJ as % Area after theresholding Tau-mKate2 fluorescence because it filled the cells evenly. Puncta/cell area was then normalized to vehicle-treated slides from that experiment.

[4] abbreviates: Table 3, read-out: Alpha screen IC50.
[5] abbreviates: Table 2, Tau-FynSH3 inhibitory activity in the AlphaScreen, read-out: IC50.

Sequence of Tau-FynSH3 interaction (P10636 other isoform, or with tags, fused parts or gaps): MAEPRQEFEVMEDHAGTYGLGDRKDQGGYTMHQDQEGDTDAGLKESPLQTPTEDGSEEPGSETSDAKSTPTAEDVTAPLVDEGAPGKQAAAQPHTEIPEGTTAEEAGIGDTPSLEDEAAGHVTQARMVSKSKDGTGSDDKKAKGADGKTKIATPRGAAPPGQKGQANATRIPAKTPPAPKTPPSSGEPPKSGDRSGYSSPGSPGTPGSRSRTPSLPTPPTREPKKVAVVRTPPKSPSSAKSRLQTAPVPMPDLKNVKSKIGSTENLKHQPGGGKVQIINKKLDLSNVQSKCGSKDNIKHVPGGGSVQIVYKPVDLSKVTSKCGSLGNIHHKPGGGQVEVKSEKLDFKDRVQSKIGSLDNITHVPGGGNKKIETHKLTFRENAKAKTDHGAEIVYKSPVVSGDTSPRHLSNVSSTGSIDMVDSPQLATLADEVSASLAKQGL
Sequence of Tau-Fyn interaction (P10636 other isoform, or with tags, fused parts or gaps): as above

As to `O=C(CCN1C(=O)CSc2cc(F)c(F)cc21)Nc1nnc(-c2ccccn2)[nH]1` [compound 9, 3-(6,7-DIFLUORO-3-OXO-2H-BENZO[B][1,4]THIAZIN-4(3H)-YL)-N-(5-(PYRIDIN-2-YL)-4H-1,2,4-TRIAZOL-3-YL)PROPANAMIDE], the half-life in data set [1] amounted to 20 min; in data set [3], 53 min. In “Solubility”, the “ADME Sol (μM)” value is “Sol = 81 μM”. Further, the pIC50 (commonly −log10 of the IC50, conventionally taken in molar units) on Tau-FynSH3 interaction (setting [4]) is 5.53. Besides, in data set [2], the logD (commonly lipophilicity at a set pH, counting ionised and neutral species) was 1.8.
On to `O=C(CN1C(=O)CCSc2ccccc21)Nc1nnc(-c2ccccn2)[nH]1` [compound 18, 2-(4-OXO-3,4-DIHYDROBENZO[B][1,4]THIAZEPIN-5(21)-YL)-N-(5-(PYRIDIN-2-YL)-4H-1,2,4-TRIAZOL-3-YL)ACETAMIDE], for which the half-life is 40 min in data set [1] and 152 min in data set [3]. Also, in “Solubility”, the “ADME Sol (μM)” value was “Sol = 59 μM”. The pIC50 at Tau-FynSH3 interaction (setting [4]) is 5.45. Besides, the logD in data set [2] came to 1.3.
Take `O=C(CCN1CCSc2ccccc21)Nc1nnc(-c2ccccn2)[nH]1` [compound no. 57]: the “Aβ toxicity / Aβ-induced membrane trafficking dysfunction, modified MTT assay” value with primary rat neurons was “did not”. Besides, the “Tau-Fyn interaction in cells, Tau-Fyn PLA in HEK-293 cells” value on Tau-Fyn interaction was “did not reduce Tau-Fyn interaction in cells”.
As for `O=C(CN1CCSc2cc(C(=O)O)ccc21)Nc1nnc(-c2ccccn2)[nH]1` [compound 64], in data set [1] (Table 2), the “MLM t1/2” value is listed as greater than 300 min. For the same compound, the pIC50 at Tau-FynSH3 interaction (setting [5]) was greater than 6.70.
On to `O=C(CCN1C(=O)CSc2ccccc21)Nc1ccc(-n2cncn2)cc1` [compound no. 37, N-(4-(1H-1,2,4-TRIAZOL-1-YL)PHENYL)-3-(3-oxo-2,3-DIHYDRO-4H-BENZO[B][1,4]THIAZIN-4-YL)PROPANAMIDE], for which the “Aβ toxicity / Aβ-induced membrane trafficking dysfunction, modified MTT assay” value in the data set with primary rat neurons is recorded as “did not ameliorate Aβ toxicity”. Also, the “AlphaScreen activity (in words)” value on Tau-FynSH3 interaction was “no observed AlphaScreen activity”. Besides, the pIC50 at Tau-FynSH3 interaction (setting [5]) was less than 4.00. Further, the “Alpha screen IC50 (μM)” value on Tau-FynSH3 interaction (Table 3) is recorded as “Inactive”.
On to `O=C(CN1CCSc2cc(Cl)ccc21)Nc1nnc(-c2ccccn2)[nH]1` [compound 58], for which, in “Solubility”, the Solubility (as a rule, the dissolved amount per volume that the medium holds) is listed as less than 1 µM.
Still for that read-out and setting: with `Cc1ccc2c(c1)SCCN2CC(=O)Nc1nnc(-c2ccccn2)[nH]1` [compound 60] the figure was less than 1 µM.
`O=C(CCN1C(=O)COc2ccccc21)Nc1nnc(-c2ccccn2)[nH]1` [compound 43, 3-(3-Oxo-2,3-DIHYDRO-4H-BENZO[B][1,4]OXAZIN-4-YL)-N-(5-(PYRIDIN-2-YL)-4H-1,2,4-TRIAZOL-3-YL)PROPANAMIDE]: the pIC50 at Tau-FynSH3 interaction (setting [5]) was less than 4.00. The “Alpha screen IC50 (μM)” value on Tau-FynSH3 interaction (Table 3) is recorded as “Inactive”.
Consider `COc1ccc2c(c1)N(CC(=O)Nc1nnc(-c3ccccn3)[nH]1)C(=O)CO2` [compound 49, 2-(6-METHOXY-3-OXO-2,3-DIHYDRO-4H-BENZO[B][1,4]OXAZIN-4-YL)-N-(5-(PYRIDIN-2-YL)-4H-1,2,4-TRIAZOL-3-YL)ACETAMIDE], for which the pIC50 at Tau-FynSH3 interaction (setting [4]) was 5.80.
Regarding `O=C(CCN1C(=O)CSc2ccccc21)Nc1nnn[nH]1` [compound 40, 3-(3-OXO-2,3-DIHYDRO-4H-BENZO[B][1,4]THIAZIN-4-YL)-N-(1H-TETRAZOL-5-YL)PROPANAMIDE], the “Alpha screen IC50 (μM)” value on Tau-FynSH3 interaction (Table 3) is on record as “Inactive”.
As for `O=C(CN1C(=O)COc2cc(Cl)ccc21)Nc1nnc(-c2ccccn2)[nH]1` [compound 52, 2-(7-CHLORO-3-OXO-2,3-DIHYDRO-4H-BENZO[B][1,4]OXAZIN-4-YL)-N-(5-(PYRIDIN-2-YL)-4H-1,2,4-TRIAZOL-3-YL)ACETAMIDE], the pIC50 on Tau-FynSH3 interaction (setting [4]) is 5.80.
